Test results taken from article PMC7044277 (Nature Communications, 2020).
Values joined by “and” are separate entries in the source; they are usually repeats but may differ in a detail not shown here. Identical values can stand only once.

Experiments:
Type in all cases: cell-based
[1] = molecular target: T1, 320 non-olfactory GPCRs (Homo sapiens, UniProt Q01718); conditions: receptor MC2R; replicate values, Fig_4g
T1 construct: expressed in transfected cells; host or cells: HTLA cells

[2] = molecular target: T2, 320 non-olfactory GPCRs (Homo sapiens, UniProt P28336); conditions: receptor NMBR; replicate values, Fig_4g
T2 construct: expressed in transfected cells; host or cells: HTLA cells

[3] = molecular target: T3, 320 non-olfactory GPCRs (Homo sapiens, UniProt Q86SQ6)
T3 construct: expressed in transfected cells; host or cells: HTLA cells

[4] = molecular target: T4, 320 non-olfactory GPCRs (Homo sapiens, UniProt Q96AM1); conditions: receptor MRGPRF; replicate values, Fig_4g
T4 construct: expressed in transfected cells; host or cells: HTLA cells
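Wherever Fold of Basal is given: compound tested at 1 µM final concentration.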
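Wherever GPCRome agonism screen response is given: fold over basal response of each receptor without drug.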

T3 sequence (Q86SQ6 whole entry): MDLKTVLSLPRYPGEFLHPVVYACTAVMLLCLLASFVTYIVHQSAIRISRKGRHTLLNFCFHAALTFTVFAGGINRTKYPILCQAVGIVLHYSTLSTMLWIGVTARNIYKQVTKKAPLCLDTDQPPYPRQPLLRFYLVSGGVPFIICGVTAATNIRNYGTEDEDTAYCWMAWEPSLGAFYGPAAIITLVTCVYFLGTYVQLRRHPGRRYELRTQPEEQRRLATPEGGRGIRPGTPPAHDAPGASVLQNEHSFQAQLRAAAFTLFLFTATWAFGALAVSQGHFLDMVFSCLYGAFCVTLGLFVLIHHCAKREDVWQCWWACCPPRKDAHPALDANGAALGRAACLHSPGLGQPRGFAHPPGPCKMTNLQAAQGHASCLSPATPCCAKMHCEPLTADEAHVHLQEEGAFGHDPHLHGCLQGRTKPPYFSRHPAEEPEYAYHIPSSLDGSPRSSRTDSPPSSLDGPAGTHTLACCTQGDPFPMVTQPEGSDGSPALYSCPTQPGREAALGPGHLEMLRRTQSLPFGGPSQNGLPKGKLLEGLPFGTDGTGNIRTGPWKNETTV
T1 sequence (Q01718 whole entry): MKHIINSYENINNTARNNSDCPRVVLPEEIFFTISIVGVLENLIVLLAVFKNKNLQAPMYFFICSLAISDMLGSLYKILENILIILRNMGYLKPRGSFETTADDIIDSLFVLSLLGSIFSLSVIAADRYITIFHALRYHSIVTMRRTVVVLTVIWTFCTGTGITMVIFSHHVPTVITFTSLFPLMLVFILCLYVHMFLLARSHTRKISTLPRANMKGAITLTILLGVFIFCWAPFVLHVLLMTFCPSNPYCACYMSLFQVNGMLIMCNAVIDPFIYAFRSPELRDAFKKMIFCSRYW
T4 sequence (Q96AM1 whole entry): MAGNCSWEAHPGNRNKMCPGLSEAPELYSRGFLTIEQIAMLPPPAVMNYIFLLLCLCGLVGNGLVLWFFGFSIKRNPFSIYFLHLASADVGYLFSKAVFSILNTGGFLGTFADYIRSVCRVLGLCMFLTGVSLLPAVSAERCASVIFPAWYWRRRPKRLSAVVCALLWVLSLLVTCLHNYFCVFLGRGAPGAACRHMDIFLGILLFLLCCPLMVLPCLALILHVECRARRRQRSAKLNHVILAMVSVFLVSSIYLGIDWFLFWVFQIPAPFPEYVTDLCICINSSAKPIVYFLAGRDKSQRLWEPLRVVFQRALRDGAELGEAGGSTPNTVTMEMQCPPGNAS
T2 sequence (P28336 whole entry): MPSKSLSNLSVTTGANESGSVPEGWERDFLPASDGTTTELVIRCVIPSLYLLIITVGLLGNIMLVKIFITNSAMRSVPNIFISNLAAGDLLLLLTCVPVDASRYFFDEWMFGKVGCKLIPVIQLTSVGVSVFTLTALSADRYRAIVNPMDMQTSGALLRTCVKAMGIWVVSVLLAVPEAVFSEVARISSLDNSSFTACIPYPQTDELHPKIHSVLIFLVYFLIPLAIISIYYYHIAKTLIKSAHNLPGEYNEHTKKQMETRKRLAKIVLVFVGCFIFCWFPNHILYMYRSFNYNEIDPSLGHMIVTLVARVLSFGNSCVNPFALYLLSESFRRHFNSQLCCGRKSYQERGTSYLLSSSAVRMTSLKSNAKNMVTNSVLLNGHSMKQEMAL

CCOc1cccc2cc(C(C)NCC3(O)CCCCC3)oc12 (stereo not shown) [O4LE6]
GPCRome agonism screen response [1]: 1.011 and 1.168 and 0.7811 and 1.192
GPCRome agonism screen response [2]: 0.2359 and 0.9261 and 0.9727 and 0.7093
Fold of Basal [3]: 0.9894 and 1.559 and 1.433 and 1.372
GPCRome agonism screen response [4]: 0.9496 and 0.9687 and 0.9252 and 0.5763
